Columns and labels:
[1] = Cytotoxicity assay (CellTiter Glo); assay type: cell-based; conditions: human; HepG2.2.15 cells, five days post treatment
Description: The Invention Determined Cytotoxicity of the Compounds Against HepG2.2.15 Cells (Table 2)
HepG2.2.15 cells were seeded into 96-well plates (8000 cells per well) and cell viability was measured by the addition of 60 μL of CellTiter Glo reagent (Promega) five days post treatment with the compounds. Cell plates with CellTiter Glo added were shaken on a plate shaker for 20 min and then the chemiluminescence signal was stabilized at room temperature for 10 min. Chemiluminescence values were read using a microplate reader (Bio-TeK SYNERGY NEO2).
The concentration corresponding to 50% cytotoxicity (CC50) was fitted by graphpad prism software. The cytotoxicity was calculated by the formula: % Cytotoxicity=100−(chemiluminescence value of sample Well −average chemiluminescence value of blank medium column)/(average chemiluminescence value of DMSO column −average chemiluminescence value of blank medium column)*100

[2] = tested on: HBV (hepatitis B virus) in HepG2.2.15 cells; test: Cell-based anti-viral activity assay (HBV DNA in supernatant by quantitative PCR); conditions: 120 h, anti-HBV activity, HepG2.2.15 cells, 5 days, read-out: EC50 (HepG2.2.15)
Outline: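 HepG2.2.15 cells (stably carrying HBV genome) treated with 3.16-fold compound dilutions, final 1% DMSO, for 5 days at 37 °C. Supernatant HBV DNA quantified by qPCR against a standard curve; % inhibition normalised to DMSO and high-concentration reference compound wells.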

CCOC(=O)C1=C(CN2CCN3C(=O)N(C45CC(CC(=O)O)(C4)C5)C[C@@H]3C2)NC(c2nccs2)=N[C@H]1c1ccc(F)cc1C [Compound 37]
CC50 at 5 days [1]: > 50 µM | EC50 [2]: 0.018 µM

COC(=O)C1=C(CN2CCN3C(=O)N(C45CC(CC(=O)O)(C4)C5)C[C@@H]3C2)NC(c2nccs2)=N[C@H]1c1ccc(F)cc1Cl [Compound 38, 2-(3-((S)-7-(((R)-6-(2-Chloro-4-Fluorophenyl)-5-(Methoxycarbonyl)-2-(Thiazol-2-Yl)-3,6-Dihydropyrimidin-4-Yl)Methyl)-3-Oxohexahydroimidazo[1,5-a]Pyrazin-2 (3H)-Yl)Bicyclo[1.1.1]Pentane-1-Yl)Acetic Acid]
CC50 at 5 days [1]: > 50 µM | EC50 [2]: 0.043 µM

CCOC(=O)CC12CC(N3C[C@@H]4[C@@H](COC)N(CC5=C(C(=O)OCC)[C@H](c6cccc(F)c6C)N=C(c6nccs6)N5)CCN4C3=O)(C1)C2 [Compound 44, Ethyl (S)-6-(((8S,8aR)-2-(3-(2-Ethoxy-2-Oxoethyl)Bicyclo[1.1.1]Pentan-1-Yl)-8-(Methoxymethyl)-3-Oxohexahydroimidazo[1,5-a]Pyrazin-7(1H)-Yl)Methyl)-4-(3-Fluoro-2-Methylphenyl)-2-(Thiazol-2-Yl)-1,4-Dihydropyrimidine-5-Carboxylate]
CC50 at 5 days [1]: > 50 µM | EC50 [2]: 0.183 µM

CCOC(=O)C1=C(CN2CCN3C(=O)N(C45CC(NS(C)(=O)=O)(C4)C5)C[C@@H]3[C@H]2C(=O)O)NC(c2nccs2)=N[C@H]1c1cccc(F)c1C [Compound 46, (8S,8aR)-7-(((S)-5-(Ethoxycarbonyl)-6-(3-Fluoro-2-Methylphenyl)-2-(Thiazol-2-Yl)-3,6-Dihydropyrimidin-4-Yl)Methyl)-2-(3-(Methylsulfonamido)Bicyclo[1.1.1]Pentan-1-Yl)-3-Oxooctahydroimidazo [1,5-a]Pyrazine-8-Carboxylic Acid]
CC50 at 5 days [1]: > 50 µM | EC50 [2]: 0.061 µM

CCOC(=O)C1=C(CN2CCN3C(=O)N(C45CC(COC)(C4)C5)C[C@@H]3[C@H]2C(=O)O)NC(c2nccs2)=N[C@H]1c1cccc(F)c1C [Compound 47, (8S,8aR)-7-(((S)-5-(Ethoxycarbonyl)-6-(3-Fluoro-2-Methylphenyl)-2-(Thiazol-2-Yl)-3,6-Dihydropyrimidin-4-Yl)Methyl)-2-(3-(Methoxymethyl)Bicyclo[1.1.1]Pentan-1-Yl)-3-Oxooctahydroimidazo[1,5-a]Pyrazine-8-Carboxylic Acid]
CC50 at 5 days [1]: > 50 µM | EC50 [2]: 0.018 µM

CCOC(=O)C1=C(CN2CCN3C(=O)N(C45CC(COC)(C4)C5)C[C@@H]3[C@@H]2C(=O)O)NC(c2nccs2)=N[C@H]1c1cccc(F)c1C [Compound 48, (8R,8aR)-7-(((S)-5-(Ethoxycarbonyl)-6-(3-Fluoro-2-Methylphenyl)-2-(Thiazol-2-Yl)-3,6-Dihydropyrimidin-4-Yl)Methyl)-2-(3-(Methoxymethyl)Bicyclo[1.1.1]Pentan-1-Yl)-3-Oxooctahydroimidazo[1,5-a]Pyrazine-8-Carboxylic Acid]
CC50 at 5 days [1]: > 50 µM | EC50 [2]: 0.015 µM

CCOC(=O)C1=C(CN2CCN3C(=O)N(C45CC(N(C)CC(=O)O)(C4)C5)C[C@@H]3C2)NC(c2nccs2)=N[C@H]1c1cccc(F)c1C [Compound 49, N-(3-((S)-7-(((S)-5-(Ethoxycarbonyl)-6-(3-Fluoro-2-Methylphenyl)-2-(Thiazol-2-Yl)-3,6-Dihydropyrimidin-4-Yl)Methyl)-3-Oxohexahydroimidazo[1,5-a]Pyrazin-2(3H)-Yl)Bicyclo[1.1.1]Pentan-1-Yl)-N-Methylglycine]
CC50 at 5 days [1]: > 50 µM | EC50 [2]: 0.017 µM

CCOC(=O)C1=C(CN2CCN3C(=O)N(C45CCC(C(=O)O)(CC4)CC5)C[C@@H]3C2)NC(c2nccs2)=N[C@H]1c1cccc(F)c1C [Compound 52, 4-((S)-7-(((S)-5-(Ethoxycarbonyl)-6-(3-Fluoro-2-Methylphenyl)-2-(Thiazol-2-Yl)-3,6-Dihydropyrimidin-4-Yl)Methyl)-3-Oxohexahydroimidazo[1,5-a]Pyrazin-2(3H)-Yl)Bicyclo[2.2.2]Octane-1-Carboxylic Acid]
CC50 at 5 days [1]: > 50 µM | EC50 [2]: 0.003 µM

CCOC(=O)C1=C(CN2CCN3C(=O)N(C45CCC(C(=O)O)(CC4)CC5)C[C@@H]3C2)NC(c2nccs2)=N[C@H]1c1ccc(F)cc1C [Compound 53, 4-((S)-7-(((S)-5-(Ethoxycarbonyl)-6-(4-Fluoro-2-Methylphenyl)-2-(Thiazol-2-Yl)-3,6-Dihydropyrimidin-4-Yl)Methyl)-3-Oxohexahydroimidazo[1,5-a]Pyrazin-2(3H)-Yl)Bicyclo[2.2.2]Octane-1-Carboxylic Acid]
CC50 at 5 days [1]: > 50 µM | EC50 [2]: 0.009 µM

CCOC(=O)C1=C(CN2CCN3C(=O)N(C45CCC(C(=O)O)(CC4)CC5)C[C@@H]3C2)NC(c2nccs2)=N[C@H]1c1ccc(F)cc1Cl [Compound 55, 4-((S)-7-(((R)-6-(2-Chloro-4-Fluorophenyl)-5-(Ethoxycarbonyl)-2-(Thiazol-2-Yl)-3,6-Dihydropyrimidin-4-Yl)Methyl)-3-Oxohexahydroimidazo[1,5-a]Pyrazin-2(3H)-Yl)Bicyclo[2.2.2]Octane-1-Carboxylic Acid]
CC50 at 5 days [1]: > 50 µM | EC50 [2]: 0.002 µM

CCOC(=O)C1=C(CN2CCN3C(=O)N(C45CCC(C(=O)O)(C4)C5)C[C@@H]3C2)NC(c2nccs2)=N[C@H]1c1cccc(F)c1C [Compound 56, 4-((S)-7-(((S)-5-(Ethoxycarbonyl)-6-(3-Fluoro-2-Methylphenyl)-2-(Thiazol-2-Yl)-3,6-Dihydropyrimidin-4-Yl)Methyl)-3-Oxohexahydroimidazo[1,5-a]Pyrazin-2(3H)-Yl)Bicyclo[2.1.1]Hexane-1-Carboxylic Acid]
CC50 at 5 days [1]: > 50 µM | EC50 [2]: 0.016 µM

CCOC(=O)C1=C(CN2CCN3C(=O)N(C45CCC(C(=O)O)(C4)C5)C[C@@H]3C2)NC(c2nccs2)=N[C@H]1c1ccc(F)cc1Cl [Compound 57, 4-((S)-7-(((R)-6-(2-Chloro-4-Fluorophenyl)-5-(Ethoxycarbonyl)-2-(Thiazol-2-Yl)-3,6-Dihydropyrimidin-4-Yl)Methyl)-3-Oxohexahydroimidazo[1,5-a]Pyrazin-2(3H)-Yl)Bicyclo[2.1.1]Hexane-1-Carboxylic Acid]
CC50 at 5 days [1]: > 50 µM | EC50 [2]: 0.012 µM

CCOC(=O)C1=C(CN2CCN3C(=O)N(C45CCC(C(=O)O)(CC4)C5)C[C@@H]3C2)NC(c2nccs2)=N[C@H]1c1cccc(F)c1C [Compound 59, 4-((S)-7-(((S)-5-(Ethoxycarbonyl)-6-(3-Fluoro-2-Methylphenyl)-2-(Thiazol-2-Yl)-3,6-Dihydropyrimidin-4-Yl)Methyl)-3-Oxohexahydroimidazo[1,5-a]Pyrazin-2(3H)-Yl)Bicyclo[2.2.1]Heptane-1-Carboxylic Acid]
CC50 at 5 days [1]: > 50 µM | EC50 [2]: 0.012 µM

CCOC(=O)C1=C(CN2CCN3C(=O)N(C45CCC(C(=O)O)(CC4)C5)C[C@@H]3C2)NC(c2nccs2)=N[C@H]1c1ccc(F)cc1Cl [Compound 60, 4-((S)-7-(((R)-6-(2-Chloro-4-Fluorophenyl)-5-(Ethoxycarbonyl)-2-(Thiazol-2-Yl)-3,6-Dihydropyrimidin-4-Yl)Methyl)-3-Oxohexahydroimidazo[1,5-a]Pyrazin-2(3H)-Yl)Bicyclo[2.2.1]Heptane-1-Carboxylic Acid]
CC50 at 5 days [1]: > 50 µM | EC50 [2]: 0.009 µM

CCOC(=O)C1=C(CN2CCN3C(=O)N(C45C6C7C4C4C5C6C74C(=O)O)C[C@@H]3C2)NC(c2nccs2)=N[C@H]1c1cccc(F)c1C (stereo partly drawn) [Compound 61]
CC50 at 5 days [1]: > 50 µM | EC50 [2]: 0.017 µM

Source: patent publication US20240166649A1, “DIHYDROPYRIMIDINE COMPOUND, PREPARATION METHOD THEREFOR AND APPLICATION THEREOF” (Shanghai Visonpharma Co., Ltd., priority 2021, published 2024)
